Assay results as given in patent US6974867B2, “Compositions and methods for treating neoplastic disease using chemotherapy and radiation sensitizers” (Chiron Corporation, priority 2000, dated 2005).

Key:
KIAA0175 [1] = test: KIAA0175 protein levels after exposure of cells to hydroxyurea (Western); conditions: recombinant HA-fusion protein or endogenously expressed
p53 [2] = test: Western analysis of p53 after γ-irradiation of transfected HT1080 cells; format: cell-based, human; conditions: 10 Gy γ-irradiation 24 hours after transfection
Method: (§1) HT1080 cells expressing endogenous KIAA0175 were transfected with the KIAA0175 anti-sense oligonucleotide (1182) and the corresponding reverse control oligonucleotide (RC1182). After culture for 24-hours, the transfected cells were treated with 10 Gy of γ-irradiation. At various times after irradiation, cells were harvested and lysates prepared and subjected to SDS-PAGE. p53, Erk2, and p21 proteins were detected by Western analysis.

KIAA0175 mRNA = test: Northern analysis of KIAA0175 mRNA after anti-sense oligonucleotide transfection; format: cell-based, human; conditions: HT1080 cells; for level of KIAA0175 mRNA expression: 100 nM oligonucleotide, Northern analysis; for KIAA0175 mRNA expression over time: 24 to 72 hours after oligonucleotide administration
Method: HT 1080 cells express endogenous KIAA0175. These cells were transfected with either the FITC (negative control) or AKT1 (positive control) oligonucleotides), 1182, or 545 oligonucleotides. Briefly, 100 nM of the respective anti-sense oligonucleotide was mixed with lipitoid 1 transfection reagent (Huang et al., Chemistry and Biology 5(6):346-354 (1998)) in a 1:3 volume to volume ratio in OPTI-MEM (GibcoBRL). The mixture was added to the HT1080 cells in complete medium (EMEM, 10% heat inactivated fetal bovine serum (FBS), 2 mM L-Glutamine, 100 U/ml Penicillin, and […] Streptomycin) and the cells were incubated at 37° C. for ^˜4-5 hours in the presence of the anti-sense oligonucleotides before changing to fresh complete medium. Total RNA was extracted at day 1 or 24, 48, or 72 hours following transfection and mRNA levels of KIAA0175 were detected by Northern analysis. 20 μg of total RNA were subjected to electrophoresis on a denaturing agarose gel. RNA was transferred to nitrocellulose and KIAA0175 mRNA was detected by probing with a ^32P-labeled, 0.7 kb KIAA0175 cDNA fragment. To control for equal loading of individual lanes, the blot was stripped of the KIAA0175 probe and re-probed with a ^32P-labeled G3PDH cDNA probe obtained from Clontech.

HT1080 cells = test: Cell cycle arrest upon γ-irradiation in transfected HT1080 cells; format: cell-based, human
Method: Because both p53 and p21 are involved in the G1 to S phase cell cycle transition, the following experiments were performed in order to assess the effect of KIAA0175 anti-sense molecules on cell cycle regulation.
Table 1 discloses the percentage of HT1080 cells in each stage of the cell cycle at various times following exposure to γ-irradiation. By 24 hours, cells were arrested in both the G1 and G2 phases as evidenced by the elevated percentage of cells in G0/G1 and G2/M phases as compared to the diminished percentage of cells in the S phase.
Table 2 discloses the effect of KIAA0175 anti-sense molecules on γ-irradiation induced cell-cycle arrest. In cells transfected with anti-sense molecules, there was a reduction in the accumulation of cells in the G1 phase and a minimized reduction in the number of cells in the S phase as compared to cells transfected with a “reverse-control” anti-sense molecule as control.

[3] = system: Normal Breast Epithelial Cell Line 184B5; test: LDH cytotoxicity assay, normal breast epithelial cell line; format: cell-based; conditions: for effect on cell death (LDH): 184B5 normal breast epithelial cell line
Method: (§2) The effect of KIAA0175 anti-sense molecules on cell sensitivity to chemotherapeutic drugs was tested on several cell lines using the lactate dehydrogenase (LDH) cytotoxicity assay essentially as follows:
(§3) Day 1: Cells were seeded in 4 separate 96 well plates, typically 5000 cells/well and incubated at 37° C. and 5% CO2.
(§4) Day 2: Cells were transfected with the KIA175-1182 and KIA175-545 anti-sense oligonucleotides (SEQ ID NOs:5 and 1, respectively) as well as the reverse complement controls, RC1182 and RC545 (SEQ ID NOs:6 and 2, respectively) essentially as described in Example 4, with and without drug. One plate (day 0) was left untransfected as a seeding control.
(§5) The transfection was carried out using a lipid vehicle for delivery as described in WO 01/16306, hereby incorporated in its entirety. Briefly, the transfection used agents known as “lipitoids” and “cholesteroids”, described, for example, in PCT publications WO 01/16306, WO 98/06437 and WO 99/08711, based on U.S. Ser. No. 60/023,867, 60/054,743, and 09/132,808, which are also hereby incorporated by reference. These lipid-cationic peptoid conjugates are shown in these references to be effective reagents for the delivery of plasmid DNA to cells in vitro. Any of the carriers described in the above-referenced applications are suitable for use in transfection of the oligonucleotides described herein.
(§6) Depending on the cell type, different lipid vehicles were used for different lengths of time for transfection. […] The transfection was carried out in complete medium and the final anti-sense oligonucleotide concentration was 300 nM per well. In the wells with drug, the drug was added to the culture at the beginning of the transfection.
(§7) Starting on Day 3: Cells were recovered, 1 plate/day and release of LDH into the supernatant was measured using a kit from Roche according to manufacturer's instructions (Roche Diagnostics, Basel, Switzerland) (data labeled as day 1, 2, 3).
(§8) For each sample, the data are expressed as a ratio of the level of LDH in wells containing cells transfected with anti-sense (AS) over the level of LDH in wells containing cells transfected with the reverse complement controls (RC) (ie:AS/RC). Thus, cells that become sensitized to drug will die and release LDH into the supernatant. An increase in the ratio signifies increased cell death and thus, higher levels of LDH in the media. A ratio higher than 1.5 signifies an effect of the anti-sense over the reverse complement control.

HCT116 cells = test: Colony (Crystal Violet) viability assay, sensitization to γ-irradiation and hydroxyurea; format: cell-based; conditions: 11 days of culture, compared to RC-treated cells
Method: γ-irradiation treatment was performed as follows: On day one, HCT116 cells were transfected with either the KIAA0175 anti-sense molecule No. 545 (545) or with the 545 reverse control molecule (RC) and plated onto tissue-culture plates. On day three, one plate each of 545 and RC transfected cells were treated with γ-irradiation (2, 4 or 8 Gy) and cultured an additional 2 hours. The γ-irradiation treated cells as well as untreated control HCT116 cells were trypsinized, counted and seeded in triplicate onto 6-well tissue culture plates to a density of 1000 cells per well. After 11 days of culture, the cells were assayed for viability by staining with Crystal Violet. Total numbers of cell colonies were then counted.
Hydroxyurea treatment was performed as follows: On day one, HCT116 cells were transfected with either the KIAA0175 anti-sense molecule No. 545 (545) or with the 545 reverse control molecule (RC) and plated onto tissue-culture plates. The following day (day two), one plate each of 545 and RC transfected cells were treated with hydroxyurea (1 mM final concentration) and cultured an additional 24 hours. On day three, the hydroxyurea treated cells as well as untreated control HCT116 cells were trypsinized, counted and seeded in triplicate onto 6-well tissue culture plates to a density of 1000 cells per well. […] Total numbers of cell colonies were then counted.

[4] = system: Breast Cancer Cell Line MDA-MB-231; test: LDH cytotoxicity assay, breast cancer cell line; format: cell-based
Method: as §2, §3, §4, §5, §6, §7, §8

KIAA0175 [5] = test: Western analysis of KIAA0175 protein level after anti-sense transfection, HT1080 cells; format: cell-based, human
Excerpt: (§9) In separate experiments, either HT1080 or HCT116 cells expressing endogenous KIAA0175 and p53 were transfected with either FITC, KIAA0175 anti-sense oligonucleotides (i.e. 545 or 1182), or the corresponding reverse control oligonucleotides (RC or RC545). Total cell lysates were fractionated by SDS-polyacrylamide gel electrophoresis and transferred to nitrocellulose membranes. Specific proteins were detected by Western analysis using antibodies to either KIAA0175 (rabbit polyclonal antisera), p53, Erk2, or p21 antibodies as indicated. Antibodies against p53, p21 and Erk2 were obtained from Santa Cruz Biotechnology, Inc. (Santa Cruz, Calif.).

p21 = test: Western analysis of p21 after γ-irradiation of transfected HT1080 cells; format: cell-based, human; conditions: 10 Gy γ-irradiation 24 hours after transfection
Method: as §1

p53 [6] = test: Western analysis of p53 protein level after anti-sense transfection, HT1080 cells; format: cell-based, human
Excerpt: as §9

[7] = 184B5, Day 0 (untransfected seeding control plate), 300 nM oligonucleotide
[8] = 184B5, Day 1, 300 nM oligonucleotide, ratio higher than 1.5 signifies an effect
[9] = 184B5, Day 2, 300 nM oligonucleotide, ratio higher than 1.5 signifies an effect
[10] = 184B5, Day 3, 300 nM oligonucleotide, ratio higher than 1.5 signifies an effect
[11] = MDA-MB-231, Day 0 (untransfected seeding control plate), 300 nM oligonucleotide
[12] = MDA-MB-231, Day 1, 300 nM oligonucleotide, ratio higher than 1.5 signifies an effect
[13] = MDA-MB-231, Day 2, 300 nM oligonucleotide, ratio higher than 1.5 signifies an effect
[14] = MDA-MB-231, Day 3, 300 nM oligonucleotide, ratio higher than 1.5 signifies an effect
[15] = MDA-MB-231 metastatic breast cancer cells

## NC(=O)NO [hydroxyurea]
KIAA0175 [1]
  KIAA0175 protein levels: caused an increase in KIAA0175 protein levels

## RC1182: reverse control oligonucleotide 5′-AGGACACCTGTTCGGTCACGATGGG-3′ (listed as DNA, chemistry not given here) [reference compound]
p53 [2]
  γ-irradiation induced increase in p53 protein level: increase in p53 protein level observed
KIAA0175 mRNA
  level of KIAA0175 mRNA expression: ineffective in reducing KIAA0175 mRNA expression
HT1080 cells; + γ-irradiation
  percentage of cells in G0-G1: 52.5%
  percentage of cells in G2-M: 32.6%
  percentage of cells in S: 14.9%
HT1080 cells; − γ-irradiation
  percentage of cells in G0-G1: 47.6%
  percentage of cells in G2-M: 19.4%
  percentage of cells in S: 33%

## KIA175-545: KIAA0175 anti-sense oligonucleotide 5′-GAGGTCCCTGTGAGCATAGCCCTGG-3′ (listed as DNA, chemistry not given here)
[3]; [7]
  LDH ratio AS/RC: 0.0000
[3]; [8]
  LDH ratio AS/RC: 1.1152
[3]; [9]
  LDH ratio AS/RC: 1.1258
[3]; [10]
  LDH ratio AS/RC: 1.2934
[3]
  effect on cell death (LDH): neither KIA175-1182 nor KIA175-545 has an effect
HCT116 cells; hydroxyurea 1 mM 24 hours
  sensitivity to hydroxyurea (number of viable colonies): increased the sensitivity of HCT116 cells to hydroxyurea
HCT116 cells; γ-irradiation 2, 4 or 8 Gy
  sensitivity to γ-irradiation (number of viable colonies): increased the sensitivity of HCT116 cells to γ-irradiation
[4]; [11]
  LDH ratio AS/RC: 0.84
[4]; [12]
  LDH ratio AS/RC: 1.05
[4]; [13]
  LDH ratio AS/RC: 1.37
[4]; [14]
  LDH ratio AS/RC: 1.62
[4]; [15]
  sensitization to the effects of Campthesin (CPT): sensitizes
  sensitization to the effects of Cisplatin: sensitizes
  sensitization to the effects of Doxorubicin (Doxo): did not appear to sensitize
KIAA0175 mRNA
  level of KIAA0175 mRNA expression: effective in reducing the level of KIAA0175 mRNA expression
  KIAA0175 mRNA expression over time: increased gradually

## AKT: positive control oligonucleotide 5′-CCATAGTGAGGTTGCATCTGGTGCC-3′ (listed as DNA, chemistry not given here) [reference compound]
KIAA0175 mRNA
  level of KIAA0175 mRNA expression: ineffective in reducing KIAA0175 mRNA expression

## RC736: reverse control oligonucleotide 5′-CTCCGTCTACAAACCTCGTACCCGT-3′ (listed as DNA, chemistry not given here) [reference compound]
KIAA0175 mRNA
  level of KIAA0175 mRNA expression: ineffective in reducing KIAA0175 mRNA expression

## KIA175-736: KIAA0175 anti-sense oligonucleotide 5′-TGCCCATGCTCCAAACATCTGCCTC-3′ (listed as DNA, chemistry not given here)
KIAA0175 mRNA
  level of KIAA0175 mRNA expression: effective in reducing the level of KIAA0175 mRNA expression

## KIA175-1182: KIAA0175 anti-sense oligonucleotide 5′-GGGTAGCACTGGCTTGTCCACAGGA-3′ (listed as DNA, chemistry not given here)
[3]; [7]
  LDH ratio AS/RC: 0.0000
[3]; [8]
  LDH ratio AS/RC: 1.0223
[3]; [9]
  LDH ratio AS/RC: 0.9065
[3]; [10]
  LDH ratio AS/RC: 1.0663
[3]
  effect on cell death (LDH): neither KIA175-1182 nor KIA175-545 has an effect
KIAA0175 [5]
  time of maximal anti-sense activity, KIAA0175 protein: 48 h
p21
  p21 protein levels after γ-irradiation: reduction of p21 protein levels
p53 [6]
  time of maximal anti-sense activity, p53 protein: 48 h
p53 [2]
  γ-irradiation induced increase in p53 protein level: blocked the γ-irradiation induced increase in p53 protein level
[4]; [11]
  LDH ratio AS/RC: 0.76
[4]; [12]
  LDH ratio AS/RC: 2.04
[4]; [13]
  LDH ratio AS/RC: 1.67
[4]; [14]
  LDH ratio AS/RC: 1.52
KIAA0175 mRNA
  level of KIAA0175 mRNA expression: effective in reducing the level of KIAA0175 mRNA expression
  KIAA0175 mRNA expression over time: increased gradually
HT1080 cells; + γ-irradiation
  percentage of cells in G0-G1: 39.3%
  percentage of cells in G2-M: 42.17%
  percentage of cells in S: 18.6%
HT1080 cells; − γ-irradiation
  percentage of cells in G0-G1: 47.4%
  percentage of cells in G2-M: 26.8%
  percentage of cells in S: 25.7%

## FITC: negative control oligonucleotide 5′-TCTGCTGCTGTCGACAACGAGTGTC-3′ (FITC label, position not given here) [reference compound]
KIAA0175 mRNA
  level of KIAA0175 mRNA expression: ineffective in reducing KIAA0175 mRNA expression
  KIAA0175 mRNA expression over time: no effect
